Assays:
Assay in all cases: Minimum Inhibitory Concentration (MIC) Method B, DIN 58940; Synergy Index according to Kull
Format in all cases: cell-based
Epidermophyton floccosum = details: single substance
Method: (§1) B) Minimum Inhibitory Concentration (MIC) Method B
(§2) 5 ml of the appropriate dilution of the test product is mixed with 0.1 ml of test suspension and mixed well. After the required action times, the mixture was mixed again. Each 0.1 ml were removed and placed in 5 ml of CSL-bouillon without neutralizing agents.
(§3) In order to calculate the synergy index with MIC values, the Kull equation (I) was used as follows:
(§4) SI=(MICmixture×PA)/MICA+(MICmixture×PB)/MICB (I)
SI is the Synergy Index according to Kull
MICA is the MIC value for Substance A
MICB is the MIC value for Substance B
MICmixture is the MIC value for the mixture of substances A and B
PA is the proportion of the substance A in the mixture
PB is the proportion of the substance B in the mixture

Corynebacterium xerosis = details: Method B (Examples 3, 5, 6), C. xerosis, single substance
Method: as §1, §2, §3, §4

Escherichia coli = details: Method B (Example 5), E. coli, single substance
Method: as §1
(§5) Test conditions: Evaluation of bactericidal and fungicidal activity in qualitative suspension test (VAH-standard methods, 04-2015). 5 ml of the appropriate dilution of the test product is mixed with 0.1 ml of test suspension and mixed well. After the required action times, the mixture was mixed again. Each 0.1 ml were removed and placed in 5 ml of CSL-bouillon without neutralizing agents.
as §3, §4
(§6) The synergistic activity of 3-hydroxypropyl caprylate and glyceryl caprylate on several bacterial and fungal reference strains for application in either Deodorant application or as preservative was determined by measuring minimum inhibitory concentrations (MIC values) according to DIN 58940 and method B (method section above).

Staphylococcus hominis = details: Method B (Example 5), S. hominis, single substance
Method: as §1, §5, §3, §4, §6

Aspergillus brasiliensis = details: Method B (Example 5), A. brasiliensis, single substance
Method: as §1, §5, §3, §4, §6

| MIC (Epidermophyton floccosum) [µg/mL] | MIC (Corynebacterium xerosis) [µg/mL] | MIC (Escherichia coli) [µg/mL] | MIC (Staphylococcus hominis) [µg/mL] | MIC (Aspergillus brasiliensis) [µg/mL] | SMILES |
| --- | --- | --- | --- | --- | --- |
| 10000 | – | – | – | – | CCCCC(O)CO (centres unmarked) [1,2 Hexanediol] |
| – | 16 | – | – | – | CC(C)=CCCC(C)=CCCC(C)=CCO [Farnesol] |
| – | 1000 | 2500 | 1000 | 2500 | CCCCCCCC(=O)OCC(O)CO (centres unmarked) [glyceryl caprylate, reference compound] |
| 5000 | 2500 | – | – | – | CCCCCCC(O)CO (centres unmarked) [Caprylyl Glycol, 1,2-Octanediol] |
